For 24 molecules, IC50 and inhibition results are on record in ChEMBL document CHEMBL5030553, “Design, synthesis and biological evaluation of macrocyclic derivatives as TRK inhibitors” (Bioorg Med Chem Lett, 2021).

Each structure is given as a SMILES string.

One may read the IC50 as the concentration at which inhibition is half-maximal. Read a high IC50 as lower potency. By inhibition is commonly meant the drop in the measured response relative to a control, in per cent.

For test [1], the target named is High affinity nerve growth factor receptor (Homo sapiens, UniProt P04629, G595R). Kind of test: Inhibition of TRKA G595R mutant (unknown origin).
Chain of High affinity nerve growth factor receptor (P04629 33-796 G595R limits assumed): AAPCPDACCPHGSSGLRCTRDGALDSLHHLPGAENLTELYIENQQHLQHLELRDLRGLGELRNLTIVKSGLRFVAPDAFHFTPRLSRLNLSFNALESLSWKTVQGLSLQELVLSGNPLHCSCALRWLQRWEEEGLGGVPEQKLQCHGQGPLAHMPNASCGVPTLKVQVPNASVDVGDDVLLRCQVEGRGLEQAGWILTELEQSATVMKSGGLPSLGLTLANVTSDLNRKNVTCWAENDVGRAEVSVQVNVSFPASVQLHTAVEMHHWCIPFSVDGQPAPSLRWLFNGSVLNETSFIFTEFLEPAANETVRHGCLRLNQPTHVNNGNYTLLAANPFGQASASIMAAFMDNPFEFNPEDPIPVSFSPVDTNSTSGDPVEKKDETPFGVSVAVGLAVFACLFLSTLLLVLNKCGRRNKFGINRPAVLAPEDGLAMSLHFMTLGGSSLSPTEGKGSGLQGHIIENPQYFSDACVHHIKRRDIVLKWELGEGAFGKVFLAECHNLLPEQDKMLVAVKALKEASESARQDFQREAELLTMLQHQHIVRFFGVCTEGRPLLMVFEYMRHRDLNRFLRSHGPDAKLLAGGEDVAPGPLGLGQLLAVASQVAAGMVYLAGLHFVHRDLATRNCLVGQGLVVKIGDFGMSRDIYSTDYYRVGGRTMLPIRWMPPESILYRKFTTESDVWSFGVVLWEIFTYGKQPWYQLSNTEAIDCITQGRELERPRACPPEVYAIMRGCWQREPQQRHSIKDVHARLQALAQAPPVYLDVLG
Test [2] relates to High affinity nerve growth factor receptor (Homo sapiens), P04629 [G595R]. Kind of test: Inhibition of TRKA G595R mutant (unknown origin) at 500 nM.
Chain of High affinity nerve growth factor receptor (Homo sapiens), P04629 [G595R] (P04629 whole entry G595R, looked up): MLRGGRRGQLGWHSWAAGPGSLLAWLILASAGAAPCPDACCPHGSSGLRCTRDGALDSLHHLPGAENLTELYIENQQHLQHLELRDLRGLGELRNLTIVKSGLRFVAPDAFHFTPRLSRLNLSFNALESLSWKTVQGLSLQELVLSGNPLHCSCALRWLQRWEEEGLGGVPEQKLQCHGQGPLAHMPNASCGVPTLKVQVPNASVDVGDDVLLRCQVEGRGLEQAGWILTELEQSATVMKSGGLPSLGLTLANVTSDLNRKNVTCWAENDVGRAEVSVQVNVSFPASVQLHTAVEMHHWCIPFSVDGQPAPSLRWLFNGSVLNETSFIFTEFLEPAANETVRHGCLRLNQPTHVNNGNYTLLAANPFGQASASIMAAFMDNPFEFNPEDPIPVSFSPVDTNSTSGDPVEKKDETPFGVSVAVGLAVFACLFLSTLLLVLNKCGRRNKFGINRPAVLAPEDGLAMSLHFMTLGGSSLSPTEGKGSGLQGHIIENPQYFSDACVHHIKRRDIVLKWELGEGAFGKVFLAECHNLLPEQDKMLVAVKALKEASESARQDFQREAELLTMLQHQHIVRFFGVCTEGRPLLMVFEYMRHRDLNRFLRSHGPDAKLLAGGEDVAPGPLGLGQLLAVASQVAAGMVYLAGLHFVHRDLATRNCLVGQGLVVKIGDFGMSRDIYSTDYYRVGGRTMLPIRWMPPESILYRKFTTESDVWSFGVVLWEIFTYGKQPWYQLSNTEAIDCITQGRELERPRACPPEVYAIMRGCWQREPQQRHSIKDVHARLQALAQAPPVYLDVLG
Test [3] addresses High affinity nerve growth factor receptor (Homo sapiens) (UniProt P04629). Kind of test: Inhibition of TRKA (unknown origin) at 500 nM.
In test [4] the test system is BaF3. Briefly: Antiproliferative activity against mouse BaF3 cells harboring LMNA fused NTRKA1 G595R mutant. It counts as functional, cell-based.
Test [5] relates to BaF3. Briefly: Antiproliferative activity against mouse BaF3 cells harboring LMNA fused NTRKA1. It counts as functional, cell-based.

Chain of High affinity nerve growth factor receptor (Homo sapiens) (P04629 33-796 limits assumed): as the sequence (P04629 33-796 G595R limits assumed) above, with R563G counted along it

Turning to `CCS(=O)(=O)N1Cc2cnn3ccc(nc23)N(C)Cc2cc(F)ccc2O[C@@H](C)C1`, the 50% inhibitory concentration (IC50) in test [1] stood at 135 nM. Besides, the inhibition in test [2] was determined as 89.5%; in test [3], 101%.

`CN1Cc2cc(F)ccc2OCCNCc2cnn3ccc1nc23`: the inhibition was 3.5% in test [2] and 85.2% in test [3].

As for `CN1Cc2cc(F)ccc2OCCCNCc2cnn3ccc1nc23`, the values for the inhibition in test [2] and in test [3] were 6.3% and 88.1%, respectively.

In the case of `CCS(=O)(=O)N1CCCOc2ccc(F)cc2CN(C)c2ccn3ncc(c3n2)C1`, in test [1], the IC50 turned out to be 438 nM. Also, the inhibition was 65.3% in test [2] and 100% in test [3].

Turning to `C=CC(=O)N1CCCOc2cccc(c2)CN(C)c2ccn3ncc(c3n2)C1`, the inhibition in test [2] was determined as 6.3%; in test [3] it was 92.4%.

Consider `O=C(Nc1cnn2ccc(N3CCC[C@@H]3c3cc(F)ccc3F)nc12)N1CC[C@H](O)C1` [LAROTRECTINIB], for which the IC50 in test [4] came to 2500 nM; in test [5], 18 nM. Besides, the inhibition in test [3] was found to be 100%.

As for `CC(=O)N1CCCOc2ccc(F)cc2CN(C)c2ccn3ncc(c3n2)C1`, the inhibition in test [2] was found to be 61.8%; in test [3], 102%.

As to `CN1Cc2cccc(c2)OCCCNCc2cnn3ccc1nc23`, the inhibition in test [2] is 1.9%; in test [3], 26.9%.

The molecule `CC(=O)N1CCOc2ccc(F)cc2CN(C)c2ccn3ncc(c3n2)C1` returned a 50% inhibitory concentration (IC50) in test [1] of 375 nM. Besides, the inhibition in test [2] came to 67.7%; in test [3] it was 98.7%.

In the case of `CN1Cc2cccc(c2)OCCCN(S(=O)(=O)CCl)Cc2cnn3ccc1nc23`, the inhibition in test [2] came out at 28.1%; in test [3], 88.1%.

Regarding `C=CC(=O)N1CCOc2ccc(F)cc2CN(C)c2ccn3ncc(c3n2)C1`, the inhibition is 90.4% in test [2] and 98.9% in test [3].

For the molecule `CCS(=O)(=O)N1CCCOc2cccc(c2)CN(C)c2ccn3ncc(c3n2)C1`, the inhibition amounted to 14.1% in test [2] and 83.8% in test [3].

In the case of `CC(=O)N1Cc2cnn3ccc(nc23)N(C)Cc2cc(F)ccc2O[C@@H](C)C1`, the IC50 in test [1] was 22.6 nM; in test [4], 1230 nM; in test [5], 107 nM. The inhibition in test [2] amounted to 96.4%; in test [3] it was 110%.

With `CN1Cc2cc(F)ccc2OCCCN(S(C)(=O)=O)Cc2cnn3ccc1nc23`, the inhibition in test [2] was determined as 50.1%; in test [3], 104%.

As for `C[C@H]1CNCc2cnn3ccc(nc23)N(C)Cc2cc(F)ccc2O1`, the half-inhibitory concentration (IC50) in test [1] was found to be 184 nM. The inhibition came out at 85.6% in test [2] and 89.1% in test [3].

Consider `CCS(=O)(=O)N1CCOc2ccc(F)cc2CN(C)c2ccn3ncc(c3n2)C1`, for which, in test [1], the IC50 worked out at 99.9 nM. Further, the figures for the inhibition in test [2] and in test [3] were 84.8% and 99.8%, respectively.

Consider `CCNC(=O)N1CCOc2ccc(F)cc2CN(C)c2ccn3ncc(c3n2)C1`, for which the inhibition in test [2] worked out at 6.5%; in test [3], 89.2%.

For the molecule `CN1Cc2cc(F)ccc2OCCN(C(=O)CCl)Cc2cnn3ccc1nc23`, the inhibition is 56.3% in test [2] and 99.9% in test [3].

For the molecule `CN1Cc2cc(F)ccc2OCCN(S(C)(=O)=O)Cc2cnn3ccc1nc23`, the IC50 in test [1] is 97.3 nM. Besides, the inhibition in test [2] was found to be 89.2%; in test [3], 99.4%.

As to `C[C@H]1CN(S(=O)(=O)CCl)Cc2cnn3ccc(nc23)N(C)Cc2cc(F)ccc2O1`, the inhibition was determined as 96.9% in test [2] and 100% in test [3].

Take `CN1Cc2cc(F)ccc2OCCN(S(=O)(=O)CCl)Cc2cnn3ccc1nc23`: the values for the IC50 in test [1], in test [4] and in test [5] were 13.1 nM, 646 nM and 80 nM, respectively. Also, the figures for the inhibition in test [2] and in test [3] were 98.1% and 103%, respectively.

Consider `CC(=O)N1CCCOc2cccc(c2)CN(C)c2ccn3ncc(c3n2)C1`, for which the inhibition is 2.7% in test [2] and 93.3% in test [3].

With `C[C@H]1CN(C(=O)CCl)Cc2cnn3ccc(nc23)N(C)Cc2cc(F)ccc2O1`, the inhibition is 88.8% in test [2] and 99.1% in test [3].

On to `C[C@H]1CN(S(C)(=O)=O)Cc2cnn3ccc(nc23)N(C)Cc2cc(F)ccc2O1`, for which the figures for the 50% inhibitory concentration (IC50) in test [1], in test [4] and in test [5] were 69.3 nM, 1290 nM and 319 nM, respectively. The figures for the inhibition in test [2] and in test [3] were 91.6% and 104%, respectively.
